Assay results published in patent US20040223918A1, “Aerosolization of cromolyn sodium using a capillary aerosol generator” (Chrysalis Technologies Incorporated, priority 2003, published 2004).

How the values were obtained:
[1] = Solubility of cromolyn sodium in ethanol and PG/EtOH mixtures; format: physicochemical; settings: Table 4 PG/EtOH mixtures, 0.25% Brij30 and 0.25% lecithin
Source text: FIG. 7 is a graph illustrating the solubility of cromolyn sodium in various propylene glycol/ethanol (PG/EtOH) mixtures, with 0.25% Brij30 and 0.25% lecithin. […] When formulated with 0.25% w/v Brij 30 and 0.25% lecithin, cromolyn sodium suspension formulations remained visually stable over a period of one to two weeks. There was no significant change in the particle size distribution of the suspended particles up to three days of standing at ambient condition. The addition of PG was primarily to prevent capillary clogging. The amount of PG required in the formulation was dependent on the API concentration.

[2] = cited from earlier work

Which results are given for O=C(O)c1cc(=O)c2c(OCC(O)COc3cccc4oc(C(=O)O)cc(=O)c34)cccc2o1 [cromolyn sodium]?
solubility in PG/EtOH mixtures [1]: almost insoluble; solubility in ethanol [2]: virtually insoluble
